US20260183407A1, “DYRK/CLK PROTACS AND USES THEREOF” (Arizona Board of Regents on Behalf of the University of …, priority 2022, published 2026)
pKd: −log10 of the molar value.

What was measured:
DYRK1A [1] = target: T1, DYRK1A (Homo sapiens, UniProt Q13627); test: KdELECT kinase binding assay (Eurofins), DYRK1A; conditions: 11-point 3-fold dilution series, qPCR readout; read-out: Binding Affinity (Kd) DYRK1A
T1 construct: purchased Eurofins; host or cells: E. coli BL21-derived (T7 phage display) or HEK-293
Procedure: (§1) KDs were obtained from Eurofins who used the following procedure: Kinase tagged T7 phase strains were prepared in an E. coli host derived from the BL21 strain. E. coli were grown to log-phase and infected with T7 phage and incubated with shaking at 32° C. until lysis. The lysates were centrifuged and filtered to remove cell debris. The remaining kinases were produced in HEK-293 cells and subsequently tagged with DNA for qPCR detection. Streptavidin-coated magnetic beads were treated with biotinylated small molecule ligands for 30 minutes at room temperature to generate affinity resins for kinase assays. The liganded beads were blocked with excess biotin and washed with locking buffer (SeaBlock (Pierce), 1% BSA, 0.05% Tween 20, 1 mM DTT) to remove unbound ligand and to reduce non-specific binding. Binding reactions were assembled by combining kinases, liganded affinity beads, and test compounds in 1× binding buffer (20% SeaBlock, 0.17× PBS, 0.05% Tween 20, 6 mM DTT). Test compounds were prepared as 111X stocks in 100% DMSO. Kds were determined using a 11-poin 3-fold compound dilution series with three DMSO control points. All compounds for Kd measurements are distributed by acoustic transfer (non-contact dispensing) in 100% DMSO. The compounds were then diluted directly into the assays such that the final concentration of DMSO was 0.9%. All reactions performed in polypropylene 384-well plate. Each was a final volume of 0.02 mL. The assay plates were incubated at room temperature with shaking for 1 hour and the affinity beads were washed with wash buffer (1×PBS, 0.05% Tween 20). The beads were then resuspended in elution buffer (1X PBS, 0.05% Tween 20, 0.5 µM nonbiotinylated affinity ligand) and incubated at room temperature with shaking for 30 minutes. The kinase concentration in the eluates was measured by qPCR.

DYRK1B [2] = target: T2, DYRK1B (Homo sapiens, UniProt Q9Y463); test: HiBiT split luciferase assay of targeted degradation of DYRK1B in Flp-In T-REx 293 cells; assay type: cell-based; conditions: 300 nM compound, 24 h, HiBiT-tagged DYRK1B in Flp-In T-REx 293 cells, normalized to vehicle; read-out: Relative Degradation at 300 nM DYRK1B
T2 construct: purchased Eurofins; host or cells: E. coli BL21-derived (T7 phage display) or HEK-293
T2 sequence (Q9Y463 whole entry, species assumed): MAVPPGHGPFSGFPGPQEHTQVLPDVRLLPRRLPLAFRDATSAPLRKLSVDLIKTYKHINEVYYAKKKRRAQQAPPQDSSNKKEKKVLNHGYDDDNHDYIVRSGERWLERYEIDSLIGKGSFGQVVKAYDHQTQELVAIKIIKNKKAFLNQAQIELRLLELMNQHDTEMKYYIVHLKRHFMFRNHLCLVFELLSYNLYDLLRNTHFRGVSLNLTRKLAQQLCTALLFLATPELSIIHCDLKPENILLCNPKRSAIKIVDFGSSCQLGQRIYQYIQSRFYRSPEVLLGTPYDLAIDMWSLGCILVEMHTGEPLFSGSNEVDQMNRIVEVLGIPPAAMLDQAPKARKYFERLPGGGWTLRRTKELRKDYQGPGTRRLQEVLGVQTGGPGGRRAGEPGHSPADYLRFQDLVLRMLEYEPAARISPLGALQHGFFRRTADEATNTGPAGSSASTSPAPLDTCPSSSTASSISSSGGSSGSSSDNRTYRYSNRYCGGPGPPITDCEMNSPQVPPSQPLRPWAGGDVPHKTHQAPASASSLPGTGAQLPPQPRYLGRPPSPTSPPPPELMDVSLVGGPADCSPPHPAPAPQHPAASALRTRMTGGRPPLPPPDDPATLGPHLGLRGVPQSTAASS
Excerpt: (§2) The Flp-In T-REx 293 Cell Line and the pcDNA5/FRT/TO vector (Invitrogen) were used to generate stable cell clones for tetracyclin-inducible expression of DYRK1A and DYRK1B. These cells contain a single stably integrated Flp recognition target (FRT) site, which allows for site-specific integration of the expression cassette by the Flp (Flippase) recombinase. DYRK1 constructs were designed to contain a C-terminal HiBiT tag for quantitative detection of HiBiT-tagged proteins in cellular lysates with the help a split luciferase assay (Nano-Glo HiBiT Lytic Detection System, Promega). To monitor the targeted degradation of DYRK1A or DYRK1B, cells were seeded in 96-well plates (10,000 cells/per well) and treated with doxycyclineinal concentration 2 μg/ml) to induce DYRK1 expression. Compounds with presumed PROTAC activity were administered 24 h after seeding. After further incubation for 24 h, cells were grossly and microscopically inspected for overt toxicity. Cells were lysed in 100 μL ice-cold passive lysis buffer (PLB, Promega) by orbital shaking (30 min on ice) before lysates were centrifuged in PCR tube (20 min 20,000 g, RT). A 10 μl aliquot of the supernatant was subjected to the HiBiT lytic assay. Luminescence was quantified in an Orion Microplate luminometer (Berthold Detection System, Germany). All compounds were tested in duplicate or triplicate wells (technical replicates) and at least two independent experiments. Relative degradation was calculated by normalization to vehicle-treated control samples.

DYRK1B [3] = target: T2, DYRK1B; test: KdELECT kinase binding assay (Eurofins), DYRK1B; conditions: 11-point 3-fold dilution series, qPCR readout; read-out: Binding Affinity (Kd) DYRK1B
Procedure: as §1

DYRK1A [4] = target: T1, DYRK1A; test: HiBiT split luciferase assay of targeted degradation of DYRK1A in Flp-In T-REx 293 cells; assay type: cell-based; conditions: 300 nM compound, 24 h, HiBiT-tagged DYRK1A in Flp-In T-REx 293 cells, normalized to vehicle; read-out: Relative Degradation at 300 nM DYRK1A
Excerpt: as §2

Structure (SMILES)	pKd (DYRK1A [1])	inhibition at 0.3 µM (DYRK1B [2])	pKd (DYRK1B [3])	inhibition at 0.3 µM (DYRK1A [4])
Cc1nc2ccc(-c3ccnc(N)c3)nc2n1-c1ccc(N2CCN(CCOCCOCCOCCNc3cccc4c3C(=O)N(C3CCC(=O)NC3=O)C4=O)CC2)c(F)c1 (stereo not drawn) [Compound 6, 4-((2-(2-(2-(2-(4-(4-(5-(2-aminopyridin-4-yl)-2-methyl-3H-imidazo[4,5-b]pyridin-3-yl)-2-fluorophenyl)piperazin-1-yl)ethoxy)ethoxy)ethoxy)ethyl)amino)-2-(2,6-dioxopiperidin-3-yl)isoindoline-1,3-dione]	> 8.00	< 30%	> 8.00	30 to 60%
Cc1nc2ccc(-c3ccnc(N)c3)nc2n1-c1ccc(N2CCN(CC#Cc3ccc(C4(C(=O)N5CCC(n6cc(CNc7cccc8c7C(=O)N(C7CCC(=O)NC7=O)C8=O)cn6)CC5)CCC4)cc3)CC2)c(F)c1 (stereo not drawn) [Compound 28, 4-(((1-(1-(1-(4-(3-(4-(4-(5-(2-aminopyridin-4-yl)-2-methyl-3H-imidazo[4,5-b]pyridin-3-yl)-2-fluorophenyl)piperazin-1-yl)prop-1-yn-1-yl)phenyl)cyclobutane-1-carbonyl)piperidin-4-yl)-1H-pyrazol-4-yl)methyl)amino)-2-(2,6-dioxopiperidin-3-yl)isoindoline-1,3-dione]	> 8.00	–	7.00 to 8.00	> 60%
Cc1nc2ccc(-c3ccnc(N)c3)nc2n1-c1ccc(N2CCN(CCOCCOCCOCCOCCNc3cc4c(cc3F)C(=O)N(C3CCC(=O)NC3=O)C4=O)CC2)c(F)c1 (stereo not drawn) [Compound 13, 5-((14-(4-(4-(5-(2-aminopyridin-4-yl)-2-methyl-3H-imidazo[4,5-b]pyridin-3-yl)-2-fluorophenyl)piperazin-1-yl)-3,6,9,12-tetraoxatetradecyl)amino)-2-(2,6-dioxopiperidin-3-yl)-6-fluoroisoindoline-1,3-dione]	7.00 to 8.00	–	7.00 to 8.00	< 30%
Cc1nc2ccc(-c3ccnc(N)c3)nc2n1-c1ccc(N2C[C@H]3CN(CC#Cc4ccc(N5CCC(C(=O)N6CCC(n7cc(CNc8cccc9c8C(=O)N(C8CCC(=O)NC8=O)C9=O)cn7)CC6)CC5)nc4)C[C@H]3C2)c(F)c1 (stereo partly drawn) [Compound 22, 4-(((1-(1-(1-(5-(3-((3aR,6aS)-5-(4-(5-(2-aminopyridin-4-yl)-2-methyl-3H-imidazo[4,5-b]pyridin-3-yl)-2-fluorophenyl)hexahydropyrrolo[3,4-c]pyrrol-2 (1H)-yl)prop-1-yn-1-yl)pyridin-2-yl)piperidine-4-carbonyl)piperidin-4-yl)-1H-pyrazol-4-yl)methyl)amino)-2-(2,6-dioxopiperidin-3-yl)isoindoline-1,3-dione]	–	< 30%	–	30 to 60%
Cc1nc2ccc(-c3ccnc(N)c3)nc2n1-c1ccc(N2CCN(C(=O)CCCN3CCC(n4cc(CNc5cccc6c5C(=O)N(C5CCC(=O)NC5=O)C6=O)cn4)CC3)CC2)c(F)c1 (stereo not drawn) [Compound 16, 4-(((1-(1-(4-(4-(4-(5-(2-aminopyridin-4-yl)-2-methyl-3H-imidazo[4,5-b]pyridin-3-yl)-2-fluorophenyl)piperazin-1-yl)-4-oxobutyl)piperidin-4-yl)-1H-pyrazol-4-yl)methyl)amino)-2-(2,6-dioxopiperidin-3-yl)isoindoline-1,3-dione]	> 8.00	–	> 8.00	30 to 60%
Cc1nc2ccc(-c3ccnc(N)c3)nc2n1-c1ccc(N2CCN(C(=O)CCN3CCN(Cc4ccc(CNc5cccc6c5CN(C5CCC(=O)NC5=O)C6=O)cc4)CC3)CC2)c(F)c1 (stereo not drawn) [Compound 11, 3-(4-((4-((4-(3-(4-(4-(5-(2-aminopyridin-4-yl)-2-methyl-3H-imidazo[4,5-b]pyridin-3-yl)-2-fluorophenyl)piperazin-1-yl)-3-oxopropyl)piperazin-1-yl)methyl)benzyl)amino)-1-oxoisoindolin-2-yl)piperidine-2,6-dione]	7.00 to 8.00	–	7.00 to 8.00	< 30%
Cc1nc2ccc(-c3ccnc(N)c3)nc2n1-c1ccc(N2CCN(c3ccc(N4CCC(C(=O)N5CCC(n6cc(CNc7cccc8c7C(=O)N(C7CCC(=O)NC7=O)C8=O)cn6)CC5)CC4)nc3)CC2)c(F)c1 (stereo not drawn) [Compound 26, 4-(((1-(1-(1-(5-(4-(4-(5-(2-aminopyridin-4-yl)-2-methyl-3H-imidazo[4,5-b]pyridin-3-yl)-2-fluorophenyl)piperazin-1-yl)pyridin-2-yl)piperidine-4-carbonyl)piperidin-4-yl)-1H-pyrazol-4-yl)methyl)amino)-2-(2,6-dioxopiperidin-3-yl)isoindoline-1,3-dione]	–	30 to 50%	–	> 60%
Cc1nc2ccc(-c3ccnc(N)c3)nc2n1-c1cc(Cl)c(N2CCN(CC#Cc3ccc(N4CCC(C(=O)N5CCC(n6cc(CNc7cccc8c7C(=O)N(C7CCC(=O)NC7=O)C8=O)cn6)CC5)CC4)nc3)CC2)c(Cl)c1 (stereo not drawn) [Compound 27, 4-(((1-(1-(1-(5-(3-(4-(4-(5-(2-aminopyridin-4-yl)-2-methyl-3H-imidazo[4,5-b]pyridin-3-yl)-2,6-dichlorophenyl)piperazin-1-yl)prop-1-yn-1-yl)pyridin-2-yl)piperidine-4-carbonyl)piperidin-4-yl)-1H-pyrazol-4-yl)methyl)amino)-2-(2,6-dioxopiperidin-3-yl)isoindoline-1,3-dione]	–	< 30%	–	> 60%
Cc1nc2ccc(-c3ccnc(N)c3)nc2n1-c1ccc(N2CCN(C(=O)CCCN3CCN(Cc4ccc(CNc5cccc6c5CN(C5CCC(=O)NC5=O)C6=O)cc4)CC3)CC2)c(F)c1 (stereo not drawn) [Compound 12, 3-(4-((4-((4-(4-(4-(4-(5-(2-aminopyridin-4-yl)-2-methyl-3H-imidazo[4,5-b]pyridin-3-yl)-2-fluorophenyl)piperazin-1-yl)-4-oxobutyl)piperazin-1-yl)methyl)benzyl)amino)-1-oxoisoindolin-2-yl)piperidine-2,6-dione]	> 8.00	–	> 8.00	30 to 60%
Cc1nc2ccc(-c3ccnc(N)c3)nc2n1-c1ccc(N2CCN(C(=O)CCCCN3CCN(Cc4ccc(CNc5cccc6c5CN(C5CCC(=O)NC5=O)C6=O)cc4)CC3)CC2)c(F)c1 (stereo not drawn) [Compound 14, 3-(4-((4-((4-(5-(4-(4-(5-(2-aminopyridin-4-yl)-2-methyl-3H-imidazo[4,5-b]pyridin-3-yl)-2-fluorophenyl)piperazin-1-yl)-5-oxopentyl)piperazin-1-yl)methyl)benzyl)amino)-1-oxoisoindolin-2-yl)piperidine-2,6-dione]	> 8.00	–	> 8.00	< 30%
Cc1nc2ccc(-c3ccnc(N)c3)nc2n1-c1ccc(N2CCN(CC#Cc3ccc(N4CCC(C(=O)N5CCC(n6cc(CNc7cccc8c7C(=O)N(C7CCC(=O)N(C)C7=O)C8=O)cn6)CC5)CC4)nc3)CC2)c(F)c1 (stereo not drawn) [Compound 31, 4-(((1-(1-(1-(5-(3-(4-(4-(5-(2-aminopyridin-4-yl)-2-methyl-3H-imidazo[4,5-b]pyridin-3-yl)-2-fluorophenyl)piperazin-1-yl)prop-1-yn-1-yl)pyridin-2-yl)piperidine-4-carbonyl)piperidin-4-yl)-1H-pyrazol-4-yl)methyl)amino)-2-(1-methyl-2,6-dioxopiperidin-3-yl)isoindoline-1,3-dione]	–	< 30%	–	< 30%
